Assay results: patent publication US20200283384A1, “ANTIBACTERIAL COMPOUNDS AND METHODS OF USE THEREOF” (Wayne State University, priority 2016, published 2020)
In brackets after ≈: the same amount, converted by molar mass. Where two headings read alike, the source gives them in different places.

Assays:
[1] = tested on: 24 strains of S. aureus (SA1-SA24); experiment: Broth micro-dilution MIC against 24 strains of S. aureus; type: cell-based; settings: for MIC: Staphylococcus aureus, read-out: Compound MIC
Method: Compounds were tested for their anti-bacterial activity against 56 clinical isolates including 24 clinical isolates of methicillin resistant S. aureus (MRSA) and methicillin-susceptible S. aureus (MSSA), 8 strains of Enterococcus, 8 strains of Acinetobacter baumannii, 8 strains of Klebsiella pneumoniae, and 8 strains of Pseudomonas aeruginosa using a standard broth micro-dilution method as recommended by the Clinical and Laboratory Standard Institute (CLSI, M100, s23).
HN18 HN19, and HN34 were tested by a broth micro-dilution method to determine their minimal inhibitory concentration (MIC) against 24 strains of S. aureus (SA1-SA24) (Table 2). […]. Furthermore, the results for HN18 and HN34 were consistent across four repeated experiments. […]

[2] = tested on: methicillin-resistant S. aureus clinical isolates (MRSA); S. aureus (K1902); experiment: Plasmid curing at sub-inhibitory concentration; type: cell-based, Staphylococcus aureus
Method: Plasmid curing was performed per Trevors (Trevors, 1986 Plasmid curing in bacteria. FEMS Microbiology, 32: 149-157). In brief, the clinical isolate was grown in the presence of HN18 and HN34 at the specified concentration for 18 h at 35° C. and then plated on Muller Hinton agar (MHA) plates to obtain isolated colonies. The isolated colonies were then replica plated onto MHA and MHA plates containing antibiotics. […] The percentage curing efficiency was expressed as the number of colonies with cured phenotype per 100 colonies tested. For plasmid extraction, 5 ml of an overnight culture of S. aureus strain was centrifuged and cells were subjected to 1 ml lysostaphin (20 μg/ml) for 1 hour at 35° C. prior to DNA extraction. Extraction of DNA was carried using QIAprep Spin Miniprep Kit (Qiagen) per manufacturer's instruction. DNA profile analysis was carried out by electrophoresis on 1.5% agarose gel.
The methicillin-resistant S. aureus clinical isolates (MRSA) growing in the presence of sub-inhibitory concentrations of HN18 and HN34 were taken for the evaluation for the loss of plasmids as described above. A culture control without a curing agent was also maintained in the curing experiment to estimate the rate of spontaneous loss of plasmids under these conditions. HN18 and HN34 eliminated the plasmid mediated antibiotic resistance markers with varying curing efficiencies (Table 3). HN18 cured plasmids from SA1, SA2, SA7 and SA8 at frequency in the range of 13-100%. HN34 also cured plasmids from SA1, SA2, SA7 and SA8 strains with 30%-100% curing efficiency.
Plasmid curing activity of HN18 and HN34 was also evaluated in S. aureus (K1902) which is known to harbor a 5 kb plasmid with a chloramphenicol resistance gene. Along with the KSA reference strain, the plasmid curing activity was repeated for SA1 and SA2 strains which are MRSA (Table 4).

[3] = tested on: S. aureus clinical isolates; experiment: Synergistic effect with oxacillin (oxacillin MIC alone and in presence of SIC); type: cell-based, Staphylococcus aureus
Method: The synergistic effect (interaction) of HN18 and HN34 with different antibiotics against S. aureus clinical isolates was studied. The oxacillin MIC values of 8 clinical isolates of Staphylococcus aureus were determined. The oxacillin MIC of the same isolates were also determined after they were exposed to SIC of HN18, HN34 (Table 5). […] Column 2 and 3 show the oxacillin MIC value of the same isolates in presence of SIC of HN18 and HN34 respectively.

[4] = Table 3, isolate SA1, at SIC, lack of growth in presence of M, Ox (4 μg/ml)
[5] = Table 3, isolate SA2, at SIC, lack of growth in presence of M, Ox (4 μg/ml)
[6] = Table 3, isolate SA3, at SIC, lack of growth in presence of M, Ox (4 μg/ml)
[7] = Table 3, isolate SA4, at SIC, lack of growth in presence of M, Ox (4 μg/ml)
[8] = Table 3, isolate SA5, at SIC, lack of growth in presence of M, Ox (4 μg/ml)
[9] = Table 3, isolate SA6, at SIC, lack of growth in presence of M, Ox (4 μg/ml)
[10] = Table 3, isolate SA7, at SIC, lack of growth in presence of M, Ox (4 μg/ml)
[11] = Table 3, isolate SA8, at SIC, lack of growth in presence of M, Ox (4 μg/ml)

Structure (SMILES): Fc1ccc(C(C2=CNC3C=CC=CC23)C2=C3C=CC=CC3NC2)cc1F (stereo not drawn) [HN18, 3-((3,4-difluorophenyl)(2,7a-dihydro-1H-indol-3-yl)methyl)-3a,7a-dihydro-1H-indole]
- Effect against the panel of S. aureus strains ([1]; 24 strains SA1-SA24, broth micro-dilution): effective
- MIC ([1]; isolate SA1, experiment I): 0.5 µg/mL (≈ 1.38 µM)
- MIC ([1]; isolate SA1, experiment II): 1 µg/mL (≈ 2.76 µM)
- MIC ([1]; isolate SA1, experiment III): 1 µg/mL (≈ 2.76 µM)
- MIC ([1]; isolate SA1, experiment IV): 1 µg/mL (≈ 2.76 µM)
- MIC ([1]; isolate SA2, experiment I): 1 µg/mL (≈ 2.76 µM)
- MIC ([1]; isolate SA2, experiment II): 2 µg/mL (≈ 5.52 µM)
- MIC ([1]; isolate SA2, experiment III): 2 µg/mL (≈ 5.52 µM)
- MIC ([1]; isolate SA2, experiment IV): 2 µg/mL (≈ 5.52 µM)
- MIC ([1]; isolate SA3, experiment I): 1 µg/mL (≈ 2.76 µM)
- MIC ([1]; isolate SA3, experiment II): 2 µg/mL (≈ 5.52 µM)
- MIC ([1]; isolate SA3, experiment III): 2 µg/mL (≈ 5.52 µM)
- MIC ([1]; isolate SA3, experiment IV): 2 µg/mL (≈ 5.52 µM)
- MIC ([1]; isolate SA4, experiment I): 1 µg/mL (≈ 2.76 µM)
- MIC ([1]; isolate SA4, experiment II): 2 µg/mL (≈ 5.52 µM)
- MIC ([1]; isolate SA4, experiment III): 1 µg/mL (≈ 2.76 µM)
- MIC ([1]; isolate SA4, experiment IV): 2 µg/mL (≈ 5.52 µM)
- MIC ([1]; isolate SA5, experiment I): 1 µg/mL (≈ 2.76 µM)
- MIC ([1]; isolate SA5, experiment II): 1 µg/mL (≈ 2.76 µM)
- MIC ([1]; isolate SA5, experiment III): 1 µg/mL (≈ 2.76 µM)
- MIC ([1]; isolate SA5, experiment IV): 2 µg/mL (≈ 5.52 µM)
- MIC ([1]; isolate SA6, experiment I): 1 µg/mL (≈ 2.76 µM)
- MIC ([1]; isolate SA6, experiment II): 2 µg/mL (≈ 5.52 µM)
- MIC ([1]; isolate SA6, experiment III): 2 µg/mL (≈ 5.52 µM)
- MIC ([1]; isolate SA6, experiment IV): 2 µg/mL (≈ 5.52 µM)
- MIC ([1]; isolate SA7, experiment I): 0.5 µg/mL (≈ 1.38 µM)
- MIC ([1]; isolate SA7, experiment II): 1 µg/mL (≈ 2.76 µM)
- MIC ([1]; isolate SA7, experiment III): 1 µg/mL (≈ 2.76 µM)
- MIC ([1]; isolate SA7, experiment IV): 1 µg/mL (≈ 2.76 µM)
- MIC ([1]; isolate SA8, experiment I): 1 µg/mL (≈ 2.76 µM)
- MIC ([1]; isolate SA8, experiment II): 2 µg/mL (≈ 5.52 µM)
- MIC ([1]; isolate SA8, experiment III): 2 µg/mL (≈ 5.52 µM)
- MIC ([1]; isolate SA8, experiment IV): 2 µg/mL (≈ 5.52 µM)
- MIC ([1]; isolate SA9, experiment I): 2 µg/mL (≈ 5.52 µM)
- MIC ([1]; isolate SA9, experiment II): 2 µg/mL (≈ 5.52 µM)
- MIC ([1]; isolate SA10, experiment I): 2 µg/mL (≈ 5.52 µM)
- MIC ([1]; isolate SA10, experiment II): 2 µg/mL (≈ 5.52 µM)
- MIC ([1]; isolate SA11, experiment I): 2 µg/mL (≈ 5.52 µM)
- MIC ([1]; isolate SA11, experiment II): 2 µg/mL (≈ 5.52 µM)
- MIC ([1]; isolate SA12, experiment I): 2 µg/mL (≈ 5.52 µM)
- MIC ([1]; isolate SA12, experiment II): 2 µg/mL (≈ 5.52 µM)
- MIC ([1]; isolate SA13, experiment I): 2 µg/mL (≈ 5.52 µM)
- MIC ([1]; isolate SA13, experiment II): 2 µg/mL (≈ 5.52 µM)
- MIC ([1]; isolate SA14, experiment I): 0.5 µg/mL (≈ 1.38 µM)
- MIC ([1]; isolate SA14, experiment II): 0.5 µg/mL (≈ 1.38 µM)
- MIC ([1]; isolate SA15, experiment I): 2 µg/mL (≈ 5.52 µM)
- MIC ([1]; isolate SA15, experiment II): 2 µg/mL (≈ 5.52 µM)
- MIC ([1]; isolate SA16, experiment I): 1 µg/mL (≈ 2.76 µM)
- MIC ([1]; isolate SA16, experiment II): 2 µg/mL (≈ 5.52 µM)
- MIC ([1]; isolate SA17, experiment I): 2 µg/mL (≈ 5.52 µM)
- MIC ([1]; isolate SA17, experiment II): 2 µg/mL (≈ 5.52 µM)
- MIC ([1]; isolate SA18, experiment I): 2 µg/mL (≈ 5.52 µM)
- MIC ([1]; isolate SA18, experiment II): 2 µg/mL (≈ 5.52 µM)
- MIC ([1]; isolate SA19, experiment I): 2 µg/mL (≈ 5.52 µM)
- MIC ([1]; isolate SA19, experiment II): 2 µg/mL (≈ 5.52 µM)
- MIC ([1]; isolate SA20, experiment I): 2 µg/mL (≈ 5.52 µM)
- MIC ([1]; isolate SA20, experiment II): 2 µg/mL (≈ 5.52 µM)
- MIC ([1]; isolate SA21, experiment I): 2 µg/mL (≈ 5.52 µM)
- MIC ([1]; isolate SA21, experiment II): 2 µg/mL (≈ 5.52 µM)
- MIC ([1]; isolate SA22, experiment I): 2 µg/mL (≈ 5.52 µM)
- MIC ([1]; isolate SA22, experiment II): 2 µg/mL (≈ 5.52 µM)
- MIC ([1]; isolate SA23, experiment I): 2 µg/mL (≈ 5.52 µM)
- MIC ([1]; isolate SA23, experiment II): 2 µg/mL (≈ 5.52 µM)
- MIC ([1]; isolate SA24, experiment I): 2 µg/mL (≈ 5.52 µM)
- MIC ([1]; isolate SA24, experiment II): 2 µg/mL (≈ 5.52 µM)
- Plasmid band in agarose gel of cured derivatives ([2]; S. aureus K1902, FIG. 3): absent
- Susceptibility of isolates after exposure to SIC ([2]; SA1 and SA2 to oxacillin, KSA to chloramphenicol): became susceptible
- Curing efficiency I [2, 4]: 0%
- Curing efficiency II [2, 4]: 100%
- Curing efficiency I [2, 5]: 100%
- Curing efficiency II [2, 5]: 50%
- Curing efficiency I [2, 6]: 0%
- Curing efficiency II [2, 6]: 0%
- Curing efficiency I [2, 7]: 100%
- Curing efficiency II [2, 7]: 0%
- Curing efficiency I [2, 8]: 0%
- Curing efficiency II [2, 8]: 0%
- Curing efficiency I [2, 9]: 0%
- Curing efficiency II [2, 9]: 0%
- Curing efficiency I [2, 10]: 23%
- Curing efficiency II [2, 10]: 90%
- Curing efficiency I [2, 11]: 13%
- Curing efficiency II [2, 11]: 70%
- Curing efficiency (%) ([2]; Table 4, KSA (S. aureus K1902), experiment I, lack of growth in presence of Cm (10 μg/ml)): 36.6%
- Curing efficiency (%) ([2]; Table 4, KSA (S. aureus K1902), experiment II, lack of growth in presence of Cm (10 μg/ml)): 46.6%
- Curing efficiency (%) ([2]; Table 4, isolate SA1, experiment I, lack of growth in presence of M, Ox (4 μg/ml)): 63.3%
- Curing efficiency (%) ([2]; Table 4, isolate SA2, experiment I, lack of growth in presence of M, Ox (4 μg/ml)): 100%
- Plasmid curing frequency / curing efficiency ([2]; range over SA1, SA2, SA7 and SA8): 13-100%
- Synergistic activity in combination with oxacillin ([3]; S. aureus clinical isolates, compound at SIC): decrease in the oxacillin MIC
- Oxacillin MIC in presence of SIC of the compound (1 μg/ml) ([3]; isolate SA3, experiment I): 0.5 µg/mL
- Oxacillin MIC in presence of SIC of the compound (1 μg/ml) ([3]; isolate SA3, experiment II): 0.5 µg/mL
- Oxacillin MIC in presence of SIC of the compound (1 μg/ml) ([3]; isolate SA4, experiment I): 0.5 µg/mL
- Oxacillin MIC in presence of SIC of the compound (1 μg/ml) ([3]; isolate SA4, experiment II): 1 µg/mL
- Oxacillin MIC in presence of SIC of the compound (1 μg/ml) ([3]; isolate SA5, experiment I): 0.03 µg/mL
- Oxacillin MIC in presence of SIC of the compound (1 μg/ml) ([3]; isolate SA5, experiment II): 0.03 µg/mL
- Oxacillin MIC in presence of SIC of the compound (1 μg/ml) ([3]; isolate SA9, experiment I): 2 µg/mL
- Oxacillin MIC in presence of SIC of the compound (1 μg/ml) ([3]; isolate SA9, experiment II): 4 µg/mL
- Oxacillin MIC in presence of SIC of the compound (1 μg/ml) ([3]; isolate SA10, experiment I): <0.03 µg/mL
- Oxacillin MIC in presence of SIC of the compound (1 μg/ml) ([3]; isolate SA10, experiment II): <0.03 µg/mL
- Oxacillin MIC in presence of SIC of the compound (1 μg/ml) ([3]; isolate SA11, experiment I): <0.03 µg/mL
- Oxacillin MIC in presence of SIC of the compound (1 μg/ml) ([3]; isolate SA11, experiment II): <0.03 µg/mL
- Oxacillin MIC in presence of SIC of the compound (1 μg/ml) ([3]; isolate SA15, experiment I): <0.03 µg/mL
- Oxacillin MIC in presence of SIC of the compound (1 μg/ml) ([3]; isolate SA15, experiment II): <0.03 µg/mL
- Oxacillin MIC in presence of SIC of the compound (1 μg/ml) ([3]; isolate SA18, experiment I): <0.03 µg/mL
- Oxacillin MIC in presence of SIC of the compound (1 μg/ml) ([3]; isolate SA18, experiment II): <0.03 µg/mL
